Test results as given in US9388147B2 (Receptos, Inc., priority 2009, dated 2016).
Where a name gives a salt, the structure may show the parent alone. Read-outs that look alike come from different tables or passages of the source.

Columns and labels:
S1P5 = target: T1, S1P5 (Homo sapiens, UniProt Q9H228); experiment: Specificity over other S1P receptors: S1P5-bla TANGO U2OS assay; type: cell-based; conditions: read-out: S1P5 agonist value (EC50)
T1 construct: Tango fusion (own knowledge: protease cleavage site plus GAL4-VP16 transcription factor at the receptor's C-terminus); host or cells: U2OS (Tango -bla)
T1 sequence (Q9H228 whole entry, the tested form may be a part): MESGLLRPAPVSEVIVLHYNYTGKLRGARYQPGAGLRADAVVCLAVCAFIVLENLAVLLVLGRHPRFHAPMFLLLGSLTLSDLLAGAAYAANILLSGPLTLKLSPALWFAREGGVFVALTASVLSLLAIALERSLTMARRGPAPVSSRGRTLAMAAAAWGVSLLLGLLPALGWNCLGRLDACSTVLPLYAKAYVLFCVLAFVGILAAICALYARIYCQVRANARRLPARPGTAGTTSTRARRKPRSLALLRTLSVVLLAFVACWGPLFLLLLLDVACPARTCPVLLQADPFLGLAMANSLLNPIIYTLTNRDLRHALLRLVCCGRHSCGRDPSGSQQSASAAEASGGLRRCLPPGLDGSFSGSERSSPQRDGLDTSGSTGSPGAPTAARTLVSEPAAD
Protocol: (§1) Cells were seeded into 384-well black wall/clear bottom plates at 10^4 cells/well/19.5 μl assay media (DMEM-phenol free, 0.5% charcoal/dextran stripped serum, 2 mM glutamine, 0.1 mM NEAA, 1 mM Na-Pyruvate, 25 mM Hepes) and incubated for 18 hrs at 37° C. in 5% CO2. Dose response curves (10-point) were generated in 10 mM Hepes, 0.1% Pluronic F127, in the presence of Forskolin. Cells were treated with 0.5 μl compound in the presence of 2 μM Forskolin for 4 hrs at 37° C. The FRET-based β-lactamase fluorescent substrate (LiveBLAzer™-FRET B/G Loading Kit CC4-AM; Invitrogen) was prepared according to manufacturer's directions, and incubated with cells for 2 hrs at room temperature. Plates were read at Ex:410/Em:458 and Ex:410/Em:522, and the response ratio determined. Data was analyzed by non-linear regression to determine the EC50 for inhibition of Forskolin induced cAMP.
(§2) To assess compound specificity on other S1P receptors the following cell lines were used: S1P2 CRE-bla CHOK1, S1P3-Gα15 NFAT-bla HEK293T (Invitrogen), S1P4-bla TANGO U2OS (Invitrogen), S1P5-bla TANGO U2OS (Invitrogen). The same assay set up for S1P1 was used but without Forskolin. S1P4 and S1P5 assays were performed in FreeStyle Expression medium (Invitrogen). S1P5 cells were incubated for 48 hrs in prior to treatment with compound.

S1P3 = target: T2, S1P3 (Homo sapiens, UniProt Q99500); experiment: Specificity over other S1P receptors: S1P3-Gα15 NFAT-bla HEK293T reporter assay; type: cell-based; conditions: without Forskolin, read-out: S1P3 agonist value (EC50)
T2 construct: host or cells: NFAT-bla HEK293T
T2 sequence (Q99500 whole entry): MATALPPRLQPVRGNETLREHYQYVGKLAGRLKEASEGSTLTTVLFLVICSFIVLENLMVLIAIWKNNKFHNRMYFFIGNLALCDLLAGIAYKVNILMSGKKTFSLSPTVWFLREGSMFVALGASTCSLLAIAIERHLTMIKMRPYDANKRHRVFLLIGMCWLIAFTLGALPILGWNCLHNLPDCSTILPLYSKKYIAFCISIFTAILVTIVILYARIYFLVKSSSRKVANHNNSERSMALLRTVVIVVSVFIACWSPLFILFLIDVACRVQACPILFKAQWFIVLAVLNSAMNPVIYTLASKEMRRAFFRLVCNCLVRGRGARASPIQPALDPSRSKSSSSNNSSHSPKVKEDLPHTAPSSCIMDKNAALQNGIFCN
Protocol: as §1, §2

[1] = tested on: CD4 or CD8 positive T cells; experiment: Lymphopenia in mice; type: in vivo; conditions: female C57BL6 mice, 1 mg/kg oral gavage, area under the effect curve over 24 h
Protocol: In mice: Female C57BL6 mice (Simonsen Laboratories, Gilroy Calif.) were housed in an ALAAC accredited facility and the research was approved by the facilities Institutional Animal Care and Use Committee (IACUC). The animals were acclimated to the laboratory for at least 5 days prior to initiation of experiments. Mice (n=3/compound/time-point) were dosed by oral gavage with 1 mg/kg compound formulated in a vehicle consisting of 5% DMSO/5% Tween 20 and 90% 0.1N HCl. Control mice were dosed PO with the vehicle. Terminal whole blood samples were collected from isoflurane anesthetized mice by cardiac puncture into EDTA. Whole blood was incubated with rat anti-mouse CD16/CD32 (Mouse BD Fc Block, #553141), PE-Rat anti-mouse CD45R/B220 (BD #553089), APC-Cy7-Rat anti-mouse CD8a (BD #557654), and Alexa Fluor647-Rat anti-mouse CD4 (BD #557681) for 30 min on ice. Red blood cells were lysed using BD Pharm Lyse Lysing buffer (#555899) and white blood cells were analyzed by FACS. Lymphopenia was expressed as the % of white blood cells that were CD4 or CD8 positive T cells. The overall lymphopenia response over 24 h was estimated by calculating the area under the effect curve (AUEC) using the linear trapezoidal rule.

S1P1/EDG1 = S1P1/EDG1 (Homo sapiens, UniProt P21453); experiment: S1P1 CRE-bla CHOK1 reporter assay, inhibition of Forskolin induced cAMP; type: cell-based
Chain of S1P1/EDG1 (P21453 whole entry): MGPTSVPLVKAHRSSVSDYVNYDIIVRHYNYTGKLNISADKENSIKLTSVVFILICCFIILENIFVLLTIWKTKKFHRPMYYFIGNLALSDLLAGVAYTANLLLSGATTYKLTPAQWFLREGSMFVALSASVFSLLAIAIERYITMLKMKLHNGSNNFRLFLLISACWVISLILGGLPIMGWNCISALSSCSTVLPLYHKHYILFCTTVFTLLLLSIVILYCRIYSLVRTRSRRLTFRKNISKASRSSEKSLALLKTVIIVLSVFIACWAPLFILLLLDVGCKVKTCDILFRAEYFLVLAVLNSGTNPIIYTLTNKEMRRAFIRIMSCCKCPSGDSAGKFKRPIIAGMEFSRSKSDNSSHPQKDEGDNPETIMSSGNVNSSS
Summary of the method: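 Read-out is a FRET β-lactamase substrate (2 h, room temperature) after 4 h, 37 °C compound treatment under 2 μM Forskolin in stable S1P1-transfected CRE-bla CHO-K1 cells. Ten-point curves; non-linear regression gives EC50 for inhibition of Forskolin-stimulated cAMP.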

[2] = S1P1 CRE-bla CHOK1, with Forskolin, read-out: S1P1 agonist value (EC50)
[3] = agonist activity range, S1P1 CRE-bla CHOK1, 2 μM Forskolin, read-out: S1P1 ACTIVITY

Structure (SMILES)	EC50 (S1P5)	EC50 (S1P3)	Mouse Lymphopenia (AUEC) [1]	EC50 (S1P1/EDG1; [2])	EC50 (S1P1/EDG1; [3])
CC(C)Oc1ccc(-c2nc(-c3cccc4c3CC[C@H]4N)no2)cc1C#N [Compound 49, (R)-5-(3-(1-amino-2,3-dihydro-1H-inden-4-yl)-1,2,4-oxadiazol-5-yl)-2-isopropoxy-benzonitrile hydrochloride]	20.1 nM	8940 nM	1762	0.17 nM	0.05 to 0.5 nM
CC(C)Oc1ccc(-c2nc(-c3cccc4c3CC[C@@H]4N)no2)cc1C#N [Compound 50, (S)-5-(3-(1-amino-2,3-dihydro-1H-inden-4-yl)-1,2,4-oxadiazol-5-yl)-2-isopropoxy-benzonitrile]	44.5 nM	8910 nM	1632	0.19 nM	0.05 to 0.5 nM
CC(C)Oc1ccc(-c2nc(-c3cccc4c3CC[C@H]4NCCO)no2)cc1C#N [Compound 85, (R)-5-(3-(1-(2-hydroxyethylamino)-2,3-dihydro-1H-inden-4-yl)-1,2,4-oxadiazol-5-yl)-2-isopropoxybenzonitrile]	15.1 nM	4500 nM	1425	–	–
CC(C)Oc1ccc(-c2nc(-c3cccc4c3CC[C@H]4NCC(=O)N(C)C)no2)cc1C#N [Compound 90, (R)-2-(4-(5-(3-cyano-4-isopropoxyphenyl)-1,2,4-oxadiazol-3-yl)-2,3-dihydro-1H-inden-1-ylamino)-N,N-dimethylacetamide hydrochloride]	12.9 nM	8820 nM	1486	0.13 nM	0.05 to 0.5 nM
CC(C)Oc1ccc(-c2nc(-c3cccc4c3CC[C@@H]4NCC(=O)N(C)C)no2)cc1C#N [Compound 91, (S)-2-(4-(5-(3-cyano-4-isopropoxyphenyl)-1,2,4-oxadiazol-3-yl)-2,3-dihydro-1H-inden-1-ylamino)-N,N-dimethylacetamide]	15.2 nM	> 10000 nM	1408	0.09 nM	0.05 to 0.5 nM
